Source: ChEMBL document CHEMBL3885861, “Open TG-GATES”

Species on record: Rattus norvegicus
Assay: Open TG-GATES - Regimen: Single
Type: toxicity, organism-based, Sprague-Dawley
Design: regimen Single, gender Male, age 6 weeks
Conditions: in vivo, po, 0 mg/kg, route gavage, dose level Control; for APTT / Bas / Eos / Fbg / Hb / Ht / Lym / MCH / MCHC / MCV / Mono / Neu / PT / Plat / RBC / Ret / WBC: tissue Blood; for KIDNEY_L / KIDNEY_R / KIDNEY_TOTAL: tissue Kidney; for LIVER: tissue Liver; for A/G / ALP / ALT / AST / BUN / CRE / Ca / Cl / DBIL / GLC / IP / K / LDH / Na / PL / RALB / TBIL / TC / TG / TP / gamma-GTP: tissue Plasma

CC(CN1c2ccccc2Sc2ccccc21)N(C)C (configuration not stated) [PROMETHAZINE]
TERMINAL_BW (3 h): 213.5 g
APTT (3 h): 22.4 s
Bas (3 h): 0%
Eos (3 h): 0.8%
Fbg (3 h): 333.6 mg/dL
Hb (3 h): 13 g/dL
Ht (3 h): 39.9%
Lym (3 h): 81.4%
MCH (3 h): 20.6 pg
MCHC (3 h): 32.6%
MCV (3 h): 63.4 fL
Mono (3 h): 2.4%
Neu (3 h): 15.2%
PT (3 h): 16.4 s
Plat (3 h): 117.1 x10_4/uL
RBC (3 h): 629.4 x10_4/ul
Ret (3 h): 8.5%
WBC (3 h): 94.5 x10_2/uL
KIDNEY_L (3 h): 0.9 g
KIDNEY_R (3 h): 1 g
KIDNEY_TOTAL (3 h): 1.9 g
LIVER (3 h): 9.9 g
A/G (3 h): 1.2
ALP (3 h): 1819.4 IU/L
ALT (3 h): 42.8 IU/L
AST (3 h): 76 IU/L
BUN (3 h): 12.8 mg/dL
CRE (3 h): 0.2 mg/dL
Ca (3 h): 10.9 mg/dL
Cl (3 h): 105.8 meq/L
DBIL (3 h): 0 mg/dL
GLC (3 h): 190.4 mg/dL
IP (3 h): 8.1 mg/dL
K (3 h): 4.4 meq/L
LDH (3 h): 234.4 IU/L
Na (3 h): 142.2 meq/L
PL (3 h): 134.2 mg/dL
RALB (3 h): 3 g/dL
TBIL (3 h): 0.016 mg/dL
TC (3 h): 75 mg/dL
TG (3 h): 64.2 mg/dL
TP (3 h): 5.5 g/dL
gamma-GTP (3 h): 1.2 IU/L
TERMINAL_BW (6 h): 210.9 g
APTT (6 h): 22.7 s
Bas (6 h): 0%
Eos (6 h): 1%
Fbg (6 h): 310.8 mg/dL
Hb (6 h): 13.3 g/dL
Ht (6 h): 39.9%
Lym (6 h): 82.6%
MCH (6 h): 20.9 pg
MCHC (6 h): 33.4%
MCV (6 h): 62.5 fL
Mono (6 h): 2.4%
Neu (6 h): 13.6%
PT (6 h): 16.7 s
Plat (6 h): 111.7 x10_4/uL
RBC (6 h): 639.6 x10_4/ul
Ret (6 h): 7.3%
WBC (6 h): 81.5 x10_2/uL
KIDNEY_L (6 h): 1 g
KIDNEY_R (6 h): 1 g
KIDNEY_TOTAL (6 h): 2 g
LIVER (6 h): 8.7 g
A/G (6 h): 1.3
ALP (6 h): 1393.4 IU/L
ALT (6 h): 41.4 IU/L
AST (6 h): 76.2 IU/L
BUN (6 h): 11.2 mg/dL
CRE (6 h): 0.2 mg/dL
Ca (6 h): 10.9 mg/dL
Cl (6 h): 104.8 meq/L
DBIL (6 h): 0 mg/dL
GLC (6 h): 186.2 mg/dL
IP (6 h): 9.4 mg/dL
K (6 h): 4.3 meq/L
LDH (6 h): 208.2 IU/L
Na (6 h): 141.2 meq/L
PL (6 h): 133.8 mg/dL
RALB (6 h): 3 g/dL
TBIL (6 h): 0.018 mg/dL
TC (6 h): 83.2 mg/dL
TG (6 h): 53 mg/dL
TP (6 h): 5.4 g/dL
gamma-GTP (6 h): 1.8 IU/L
TERMINAL_BW (9 h): 207.6 g
APTT (9 h): 22.2 s
Bas (9 h): 0%
Eos (9 h): 0.8%
Fbg (9 h): 318.8 mg/dL
Hb (9 h): 13.1 g/dL
Ht (9 h): 40.1%
Lym (9 h): 80%
MCH (9 h): 20.8 pg
MCHC (9 h): 32.6%
MCV (9 h): 64 fL
Mono (9 h): 3%
Neu (9 h): 15.6%
PT (9 h): 16.7 s
Plat (9 h): 123.9 x10_4/uL
RBC (9 h): 627.6 x10_4/ul
Ret (9 h): 8.1%
WBC (9 h): 107.3 x10_2/uL
KIDNEY_L (9 h): 1 g
KIDNEY_R (9 h): 1 g
KIDNEY_TOTAL (9 h): 1.9 g
LIVER (9 h): 8.7 g
A/G (9 h): 1.2
ALP (9 h): 1357.2 IU/L
ALT (9 h): 38.8 IU/L
AST (9 h): 68 IU/L
BUN (9 h): 12.4 mg/dL
CRE (9 h): 0.2 mg/dL
Ca (9 h): 10.6 mg/dL
Cl (9 h): 104.6 meq/L
DBIL (9 h): 0.004 mg/dL
GLC (9 h): 191.2 mg/dL
IP (9 h): 10 mg/dL
K (9 h): 4.5 meq/L
LDH (9 h): 237.8 IU/L
Na (9 h): 140.4 meq/L
PL (9 h): 125.8 mg/dL
RALB (9 h): 3 g/dL
TBIL (9 h): 0.016 mg/dL
TC (9 h): 73.2 mg/dL
TG (9 h): 55 mg/dL
TP (9 h): 5.4 g/dL
gamma-GTP (9 h): 1.2 IU/L
TERMINAL_BW (24 h): 222 g
APTT (24 h): 22.1 s
Bas (24 h): 0%
Eos (24 h): 0.8%
Fbg (24 h): 326.8 mg/dL
Hb (24 h): 13.5 g/dL
Ht (24 h): 40.2%
Lym (24 h): 81.6%
MCH (24 h): 20.8 pg
MCHC (24 h): 33.5%
MCV (24 h): 62.2 fL
Mono (24 h): 2%
Neu (24 h): 14.8%
PT (24 h): 17 s
Plat (24 h): 131.7 x10_4/uL
RBC (24 h): 647.6 x10_4/ul
Ret (24 h): 7.2%
WBC (24 h): 130.1 x10_2/uL
KIDNEY_L (24 h): 1 g
KIDNEY_R (24 h): 1 g
KIDNEY_TOTAL (24 h): 2 g
LIVER (24 h): 10.5 g
A/G (24 h): 1.3
ALP (24 h): 1690.8 IU/L
ALT (24 h): 44.2 IU/L
AST (24 h): 73.2 IU/L
BUN (24 h): 15.8 mg/dL
CRE (24 h): 0.2 mg/dL
Ca (24 h): 11 mg/dL
Cl (24 h): 106.6 meq/L
DBIL (24 h): 0 mg/dL
GLC (24 h): 192.6 mg/dL
IP (24 h): 7.2 mg/dL
K (24 h): 4.4 meq/L
LDH (24 h): 180.6 IU/L
Na (24 h): 142.4 meq/L
PL (24 h): 141.4 mg/dL
RALB (24 h): 3.1 g/dL
TBIL (24 h): 0.004 mg/dL
TC (24 h): 74.4 mg/dL
TG (24 h): 95.8 mg/dL
TP (24 h): 5.5 g/dL
gamma-GTP (24 h): 1.4 IU/L
